Patent US20100022559A1, “BISOXIMES AS FUNGICIDES” (BAYER CROPSCIENCE AG, priority 2006, published 2010)

What was measured:
[1] = logP determination by HPLC on a reversed-phase column (C 18), EEC Directive 79/831 Annex V.A8; format: physicochemical
Protocol: The stated logP values were determined in accordance with EEC Directive 79/831 Annex V.A8 by HPLC (high performance liquid chromatography) on a reversed-phase column (C 18). Temperature: 43° C.

Puccinia recondita = assay: Puccinia Recondita Test (Cereal)/Seed Treatment; format: in vivo; conditions: 50 g/100 kg of seed; seed treatment; evaluation about 7 days after inoculation
Protocol: Puccinia Recondita Test (Cereal)/Seed Treatment
The active compounds are applied as liquid dressings, 1 part by weight of the active compound being mixed with 10 parts by weight of a solvent. For each concentration tested, the appropriate volume from the mixture is pipetted. For the dressing, the preparation is pipetted onto the seed and the seed is shaken in a closed glass bottle for 3 minutes. At 3×12 grains, the seed is sown into a soil/sand mixture in pots. The pots are initially incubated at 5° C. in the dark for 14 days and then cultivated in a greenhouse at a temperature of about 10° C. and 15 hours of light per day for a further 14 days. The plants are then sprayed with a spore suspension of Puccinia recondita and subsequently placed in an incubation cabin at 18° C. and 100% relative atmospheric humidity for 48 hours. The plants are then placed in a greenhouse at a temperature of about 18° C. and a relative atmospheric humidity of 80%. Evaluation is carried out about 7 days after the inoculation. 0% means an efficacy which corresponds to that of the control, whereas an efficacy of 100% means that no infection is observed.

[2] = system: green peach aphid (Myzus persicae); assay: Myzus test (spray treatment); format: in vivo; conditions: active compound concentration 500 ppm, after 5 days, chinese cabbage leaf discs
Protocol: [table] To produce a suitable preparation of active compound, 1 part by weight of active compound is mixed with the stated amounts of solvents and emulsifier, and the concentrate is diluted with emulsifier-containing water to the desired concentration. Discs of chinese cabbage (Brassica pekinensis) which are infested by all stages of the green peach aphid (Myzus persicae) are sprayed with an active compound preparation of the desired concentration. After the desired period of time, the effect in % is determined. 100% means that all aphids have been killed; 0% means that none of the aphids have been killed.

[3] = system: larvae of the mustard beetle (Phaedon cochleariae); assay: Phaedon test (spray treatment); format: in vivo; conditions: active compound concentration 500 ppm, after 7 days, chinese cabbage leaf discs
Protocol: [table] To produce a suitable preparation of active compound, 1 part by weight of active compound is mixed with the stated amounts of solvents and emulsifier, and the concentrate is diluted with emulsifier-containing water to the desired concentration. Discs of chinese cabbage (Brassica pekinensis) are sprayed with an active compound preparation of the desired concentration and, after drying, populated with larvae of the mustard beetle (Phaedon cochleariae). After the desired period of time, the effect in % is determined. 100% means that all beetle larvae have been killed; 0% means that none of the beetle larvae have been killed.

Structure (SMILES) | logP ([1]; value marked [a]) | logP ([1]; value marked [b]) | logP ([1]; value marked [c]) | further results
CC(=NOCC(C)(C)CON=C(C)c1cccc(C)n1)c1cccc(C)n1 (single isomer, unassigned) [Compound 141] |  |  |  | logP ([1]; method marker [b], isomer A / isomer B / isomer mixture as noted in the cell): 4.40^[b] (isomer A); efficacy (Puccinia recondita): ≥ 70%
CC(=NOCC1(CON=C(C)c2cccc(C)n2)CC(C(C)(C)C)=NO1)c1cccc(C)n1 (stereo not shown) [Compound 600] |  |  |  | logP ([1]; method marked [b] in Table 1): 3.85^[b]; efficacy [2]: 100%
CCCC1=NOC(CON=C(CCC)c2cccc(C)n2)(CON=C(CCC)c2cccc(C)n2)C1 (stereo not shown) [Compound 618] |  |  |  | logP ([1]; method marked [b] in Table 1): 5.71^[b]; efficacy [3]: 100%
CC(=NOCC1(CON=C(C)c2cc(Cl)cc(C)n2)CC1)c1cc(Cl)cc(C)n1 [compound 805] | 7.02^[a) |  |  | 
C=C(CON=C(C)c1cccc(C)n1)CON=C(N)c1ccc(C)c(C)n1 [compound 808] | 2.38^[a] |  |  | 
CCC(CC)(CON=C(C)c1nc(C)ccc1C)CON=C(C)c1nc(C)ccc1C [compound 812] |  | 5.24^[b] | 6.66^[c] | 
CC(=NOCC(C)(C)CON=C(C)c1cccc(C2CC2)n1)c1cccc(C2CC2)n1 [compound 814] | 7.36^[a] |  |  | 
CC(=NOCC(C)CON=C(C)c1cccc(C2CC2)n1)c1cccc(C2CC2)n1 (stereo not shown) [compound 815] | 7.36^[a] |  |  | 
C=C(CON=C(SCCC)c1cccc(C)n1)CON=C(SCCC)c1cccc(C)n1 [compound 819] | 4.9^[a] |  |  | 
C=C(CON=C(Cl)c1cccc(C)n1)CON=C(Cl)c1ccc(C)c(C)n1 [compound 822] | 4.12^[a] |  |  | 
Cc1cccc(C(C#N)=NOCC(C)CON=C(C#N)c2cccc(C)n2)n1 (stereo not shown) [compound 827] | 4.20^[a] |  |  | 
C=C(CON=C(C#N)c1cccc(C)n1)CON=C(C#N)c1ccc(C)c(C)n1 [compound 828] | 4.20^[a] |  |  | 
C=C(CON=C(C#N)c1cc(C)cc(C)n1)CON=C(C#N)c1cc(C)cc(C)n1 [compound 830] | 4.50^[a] |  |  | 
C=C(CON=C(N)c1ccc(C)c(C)n1)CON=C(Cl)c1cccc(C)n1 [compound 831] | 4.06^[a] |  |  | 
CC(=NOCCC(C)CCON=C(C)c1ccc(C(F)(F)F)cn1)c1ccc(C(F)(F)F)cn1 (stereo not shown) [compound 832] | 7.36^[a] |  |  | 
Cc1cc(C)nc(C(Cl)=NOCC(C)CON=C(Cl)c2cc(C)cc(C)n2)c1 (stereo not shown) [compound 833] | 4.17^[a] |  |  | 
COc1c(Cl)cc(C(C)=NOCC(C)CON=C(C)c2cc(Cl)c(OC)c(C)n2)nc1C (stereo not shown) [compound 839] |  | 7.36^[b] | 7.36^[c] | 
CC(=NOCC(C)CON=C(C)c1cc(C2CC2)cc(C)n1)c1cccc(C)n1 (stereo not shown) [compound 845] | 3.21^[a] |  | 6.40^[c] | 
CC(=NOCC(C)CON=C(C)c1cc(C2CC2)cc(C)n1)c1cc(Cl)cc(C)n1 (stereo not shown) [compound 846] | 5.23^[a] |  | 7.36^[c] | 
CC(=NOCC1(CON=C(C)c2cccc(NCC3CC3)n2)CC1)c1cccc(NCC2CC2)n1 [compound 849] |  | 1.93^[b] |  | 
CC(=NOCC1(CON=C(C)c2cccc(NCC3CC3)n2)CCC1)c1cccc(NCC2CC2)n1 [compound 850] |  | 2.28^[b] |  | 
CC(=NOC(=O)NCCCCNC(=O)ON=C(C)c1ccc(C)c(C)n1)c1ccc(C)c(C)n1 [compound 851] | 2.04^[a] |  |  | 
CC(=NOC(=O)NCCCCNC(=O)ON=C(C)c1cc(C)cc(C)n1)c1cc(C)cc(C)n1 [compound 852] | 1.63^[a] |  |  | 
CCOC(=O)C(C)(CON=C(C)c1cccc(C)n1)CON=C(C)c1cccc(C)n1 (stereo not shown) [compound 853] |  | 4.06^[b] | 5.00^[c] | 

Structure (SMILES) | logP ([1]; value marked [a]) | logP ([1]; value marked [b]) | logP ([1]; value marked [c]) | further results
CCOC(=O)C(C)(CON=C(C)c1ccc(C)c(C)n1)CON=C(C)c1ccc(C)c(C)n1 (stereo not shown) [compound 854] |  | 3.85^[b] | 5.82^[c] | 
CCOC(=O)C(C)(CON=C(C)c1cc(C)cc(C)n1)CON=C(C)c1cc(C)cc(C)n1 (stereo not shown) [compound 855] |  | 2.79^[b] | 5.72^[c] | 
CC(=NOCC1(CON=C(C)c2cccc(C)n2)COC(=O)N1)c1cccc(C)n1 (stereo not shown) [compound 856] |  | 1.99^[b] | 2.97^[c] | 
CC(=NOCC1(CON=C(C)c2ccc(C)c(C)n2)COC(=O)N1)c1ccc(C)c(C)n1 (stereo not shown) [compound 857] |  | 1.96^[b] | 3.70^[c] | 
CC(=NOCC1(CON=C(C)c2cc(C)cc(C)n2)COC(=O)N1)c1cc(C)cc(C)n1 (stereo not shown) [compound 858] |  | 1.43^[b] | 3,55^[c] | 
CC(=NOCC1(CON=C(C)c2nc(C)ccc2C)COC(=O)N1)c1nc(C)ccc1C (stereo not shown) [compound 859] |  | 1.70^[b] | 2.81^[c] | 
CCOC(=O)C(C)(CON=C(C)c1nc(C)ccc1C)CON=C(C)c1nc(C)ccc1C (stereo not shown) [compound 860] |  | 3.03[b] | 4.72^[c] | 
CC(=NOC(=O)NCCCC(C)CNC(=O)ON=C(C)c1ccc(C)c(C)n1)c1ccc(C)c(C)n1 (stereo not shown) [compound 861] | 2.55^[a] |  |  | 
CC(=NOC(=O)NCCCC(C)CNC(=O)ON=C(C)c1cc(C)cc(C)n1)c1cc(C)cc(C)n1 (stereo not shown) [compound 862] | 2.06^[a] |  |  | 
CC(=NOC(=O)NCCCC(C)CNC(=O)ON=C(C)c1cccc(C)n1)c1cccc(C)n1 (stereo not shown) [compound 863] | 2.46^[a] |  |  | 
CC(=NOC(=O)NCCCCNC(=O)ON=C(C)c1cccc(C)n1)c1cccc(C)n1 [compound 864] | 1.97^[a] |  |  | 
CC=Cc1cc(C)nc(C(C)=NOCC(C)CON=C(C)c2cc(C=CC)cc(C)n2)c1 (stereo not shown) [compound 866] | 4.57^[a] | 4.57^[b] |  | 
CC(=NOCC(C)CON=C(C)c1cc(CO)cc(C)n1)c1cc(CO)cc(C)n1 (stereo not shown) [compound 868] |  | 1.31^[b] | 2.67^[c] | 
CC(=NOCC(C)CON=C(C)c1cc(C(F)(F)F)cc(C)n1)c1cc(C(F)(F)F)cc(C)n1 (stereo not shown) [compound 869] | 7.36^[a] | 7.36^[b] | 5.53^[c] | 
C=CCOC(C)(CON=C(C)c1cccc(C)n1)C(C)ON=C(C)c1cccc(C)n1 (stereo not shown) [compound 872] | 6.13^[a] | 6.13^[b] | 6.96^[c] | 
C#Cc1cc(C)nc(C(C)=NOCC(C)CON=C(C)c2cc(C#C)cc(C)n2)c1 (stereo not shown) [compound 873] | 6.65^[a] | 6.65^[b] | 6.61^[c] | 
COCC#Cc1cc(C)nc(C(C)=NOCC(C)CON=C(C)c2cc(C#CCOC)cc(C)n2)c1 (stereo not shown) [compound 874] | 6.76^[a] | 6.76^[b] | 6.87^[c] | 
CC(=O)OCC#Cc1cc(C)nc(C(C)=NOCC(C)CON=C(C)c2cc(C#CCOC(C)=O)cc(C)n2)c1 (stereo not shown) [compound 875] | 6.25^[a] | 6.25^[b] | 6.31^[c] | 
CC(=NOCC(C)CON=C(C)c1ccc(C)c(C)n1)c1cc(Cl)cc(C)n1 (stereo not shown) [compound 876] | 6.52^[a] | 6.52^[b] | 7.36^[c] | 
CC(=NOCC(C)CON=C(C)c1cc(Cl)cc(C)n1)c1cccc(C)n1 (stereo not shown) [compound 877] | 6.58^[a] | 6.58^[b] | 7.36^[c] | 
CCC(CC)(CON=C(C)c1nc(C)ccc1C)CON=C(C)c1nc(C)ccc1C [compound 882] |  | 3.90^[b] | 5.41^[c] | 
CCC(=NOCC(C)(C)CON=C(CC)c1cccc(C)n1)c1cccc(C)n1 [compound 883] |  | 6.81^[b] | 7.36^[c] | 
CCOC(=O)C(C)(CON=C(C)c1nc(C)ccc1C)CON=C(C)c1nc(C)ccc1C (stereo not shown) [compound 884] |  | 2.47^[b] | 3.84^[c] | 
Cc1cc(C)nc(/C(N)=N/OCC(C)CO/N=C(\N)c2nc(C)cc(C)n2)n1 (stereo not shown) [drawing 85, N′,N″-[(2-methylpropane-1,3-diyl)bis(oxy)]bis(4,6-dimethylpyrimidine-2-carboximidamide)] |  |  |  | chromatographic logP ([1]; reversed-phase HPLC column (C 18), HCO2H, HPLC reversed-phase column (C 18), 43° C., read-out: logP (HCO2H)): 1.81
